Where a name gives a salt, the structure may show the parent alone.
Legend:
[1] = system: wachen, spontan hypertensiven Ratten; assay: Blood pressure and heart rate in conscious spontaneously hypertensive rats; details: in vivo
Text: (§1) Die Messungen von Blutdruck und Herzfrequenz wurden an der spontan hypertensiven Ratte und am narkotisierten, normotensiven Hund durchgeführt (siehe Tabelle 1 und 2).

[2] = system: narkotisierten, normtensiven Hunden; assay: Blood pressure and heart rate in anaesthetised normotensive dogs; format: in vivo, Beagle-Hunde; details: anaesthetised normotensive dog, at a dose giving a similar fall in blood pressure; text summary of Tabelle 2
Text: as §1

Structure (SMILES) | Herzfrequenz (result in words) [1] | Herzfrequenz (result in words) [2]
O=C1c2cc(CO)sc2CCC1CN[C@@H]1CC[C@@H](Oc2ccccc2)[C@@H]1O (relative stereo) [Beispiel 1, 5-[N-((Z)-2-Hydroxy-(E)-3-phenoxy-cyclopentyl)-aminomethyl]-4,5,6,7-tetrahydro-2-hydroxymethyl-benzothiophen-4-on, Hydrochlorid] | Herzfrequenzerniedrigung | praktisch keine Herzfrequenzänderung
Cc1cc2c(s1)CCC(CN[C@@H]1CC[C@@H](Oc3ccccc3)[C@@H]1O)C2=O (relative stereo) [MDL 19744 A] | ausgeprägten Herzfrequenzsteigerung | ausgeprägten Herzfrequenzsteigerung
